This note sets out measurements from ChEMBL document CHEMBL1201862, “PubChem BioAssay data set” (2004).

SMILES strings stand for the structures. The source made the active and inactive calls.

The test system of assay [1] is Streptococcus sp. 'group A'. In words: Streptococcus pyogenes SK(-)GAS viability under kanamycin – luminescence, BacTiterGlo, confirmation, counter-screen for streptokinase expression inhibitor project, dose response (AID 1900). In kind it is functional, organism-based.
The next assay addresses T1, Streptokinase A (Streptococcus pyogenes serotype M1, UniProt P10520).
T1 sequence (P10520 whole entry): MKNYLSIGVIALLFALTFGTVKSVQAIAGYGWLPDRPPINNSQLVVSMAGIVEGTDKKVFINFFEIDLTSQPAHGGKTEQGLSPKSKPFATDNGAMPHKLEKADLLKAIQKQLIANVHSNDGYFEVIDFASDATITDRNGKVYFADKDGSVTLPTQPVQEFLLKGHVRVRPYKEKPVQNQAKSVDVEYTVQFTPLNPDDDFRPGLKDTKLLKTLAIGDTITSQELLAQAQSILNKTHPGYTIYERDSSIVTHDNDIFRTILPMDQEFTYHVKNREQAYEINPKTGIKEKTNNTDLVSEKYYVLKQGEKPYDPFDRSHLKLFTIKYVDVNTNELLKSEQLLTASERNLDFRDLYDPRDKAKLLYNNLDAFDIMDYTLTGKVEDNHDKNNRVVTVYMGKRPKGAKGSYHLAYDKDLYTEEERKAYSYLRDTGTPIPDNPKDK
In words: viability-normalized secreted streptokinase activity reduction – plasminogen activation absorbance, OD405, dose response (AID 1914).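 Further: secreted streptokinase activity via plasminogen activation per viability signal from cell pellet.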 In kind it is functional, Streptococcus pyogenes M1 GAS.

For a further assay, the system named is Streptococcus. In words: GAS UMAA2166 growth inhibition – luminescence, BacTiterGlo, counter-screen for streptokinase expression inhibitor project, dose response (AID 1915).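 Further: potency for reduction of bacterial viability or growth.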 Type of assay: functional, organism-based.
The target in assay [2] is DNA dC->dU-editing enzyme APOBEC-3A (Homo sapiens, UniProt P31941). In words: Dose Response confirmation of small molecule APOBEC3A DNA Deaminase Inhibitors via a fluorescence-based single-stranded DNA deaminase assay. [Related pubchem assays (depositor defined):AID493011, AID493024]. Type of assay: functional.
The target in assay [3] is DNA dC->dU-editing enzyme APOBEC-3G (Homo sapiens, UniProt Q9HC16). Type of assay: functional.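 Further: Dose-response counterscreen measuring inhibition of APOBEC3G DNA deaminase activity, run while confirming APOBEC3A inhibitors.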
Another assay relates to H9c2. In words: cells. Type of assay: functional, cell-based. Conditions: Rattus norvegicus, H9c2, Myocardium.
In the next assay the target is T2, Protein skinhead-1 (Caenorhabditis elegans, UniProt P34707).
T2 sequence (P34707 whole entry): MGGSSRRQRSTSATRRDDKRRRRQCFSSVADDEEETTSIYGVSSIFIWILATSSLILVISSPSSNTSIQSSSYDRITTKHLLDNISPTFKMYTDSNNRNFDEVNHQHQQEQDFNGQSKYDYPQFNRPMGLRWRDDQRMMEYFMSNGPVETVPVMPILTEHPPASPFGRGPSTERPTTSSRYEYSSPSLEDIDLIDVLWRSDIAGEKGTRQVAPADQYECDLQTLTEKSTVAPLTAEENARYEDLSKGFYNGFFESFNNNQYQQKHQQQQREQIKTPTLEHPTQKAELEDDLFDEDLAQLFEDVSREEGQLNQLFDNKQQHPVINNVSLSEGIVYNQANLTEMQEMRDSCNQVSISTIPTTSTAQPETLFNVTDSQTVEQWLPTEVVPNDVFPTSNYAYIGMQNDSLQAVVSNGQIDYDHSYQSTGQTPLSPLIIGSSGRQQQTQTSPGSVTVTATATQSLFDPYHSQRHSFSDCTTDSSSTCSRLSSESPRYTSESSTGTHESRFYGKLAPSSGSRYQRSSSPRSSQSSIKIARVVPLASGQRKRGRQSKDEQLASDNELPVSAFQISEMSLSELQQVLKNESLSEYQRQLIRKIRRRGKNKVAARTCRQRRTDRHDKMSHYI
Type of assay: functional.

Assay [4] has as its system BJ. In words: BJ-TERT fibroblast viability loss – cell-based, RAS-independent, luminescence, dose response (AID 1933). In kind it is functional. Conditions: Homo sapiens.
The subject of assay [5] is BJ. In words: cells. Conditions: Homo sapiens. In kind it is functional, cell-based.
Assay [6] has as its system BJ. In words: BJ-TERT-LT-ST fibroblast viability loss – cell-based, RAS-independent, luminescence, dose response (AID 1935).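 Further: BJ fibroblasts immortalized with TERT plus LT and ST oncogenes.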 In kind it is functional. Conditions: Homo sapiens.
Assay [7] can be described thus: DRD fibroblast viability loss – cell-based, non-viral oncogenic, luminescence, dose response (AID 1934). Type of assay: functional. Conditions: Homo sapiens.
The nature of assay [8]: blockers of HIV-1 envelope-mediated cell-cell fusion – cherry-pick, dose response (AID 652057). Type of assay: functional, cell-based.
Assay [9] is described as follows: HIV-1 AD8 envelope cell-cell fusion blockers – cherry-pick, dose response (AID 652062).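 Further: luciferase signal from cell-cell fusion driven by HIV-1 clade B AD8 Env; potency is for inhibitors of fusion seen as a drop in luminescence.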 In kind it is functional, cell-based.
Assay [10] deals with T3, RNA-binding protein pos-1 (Caenorhabditis elegans, UniProt G5EF15).
T3 sequence (G5EF15 whole entry): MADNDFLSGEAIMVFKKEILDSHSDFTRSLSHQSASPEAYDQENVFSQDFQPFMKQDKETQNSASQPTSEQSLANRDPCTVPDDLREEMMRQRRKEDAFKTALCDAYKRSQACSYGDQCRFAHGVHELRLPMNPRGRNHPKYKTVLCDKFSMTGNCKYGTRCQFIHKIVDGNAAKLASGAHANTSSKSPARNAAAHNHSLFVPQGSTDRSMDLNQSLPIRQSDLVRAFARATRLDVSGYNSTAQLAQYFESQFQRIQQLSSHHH
In words: disruptors of C. elegans POS-1 RNA interaction – biochemical, fluorescence polarization, dose response (AID 1964).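 Further: purified POS-1 fused to maltose binding protein made in E. coli; potency of compounds blocking POS-1 binding to fluorescent RNA.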

The target of assay [11] is T4, Zinc finger protein mex-5 (Caenorhabditis elegans, UniProt Q9XUB2).
T4 sequence (Q9XUB2 whole entry): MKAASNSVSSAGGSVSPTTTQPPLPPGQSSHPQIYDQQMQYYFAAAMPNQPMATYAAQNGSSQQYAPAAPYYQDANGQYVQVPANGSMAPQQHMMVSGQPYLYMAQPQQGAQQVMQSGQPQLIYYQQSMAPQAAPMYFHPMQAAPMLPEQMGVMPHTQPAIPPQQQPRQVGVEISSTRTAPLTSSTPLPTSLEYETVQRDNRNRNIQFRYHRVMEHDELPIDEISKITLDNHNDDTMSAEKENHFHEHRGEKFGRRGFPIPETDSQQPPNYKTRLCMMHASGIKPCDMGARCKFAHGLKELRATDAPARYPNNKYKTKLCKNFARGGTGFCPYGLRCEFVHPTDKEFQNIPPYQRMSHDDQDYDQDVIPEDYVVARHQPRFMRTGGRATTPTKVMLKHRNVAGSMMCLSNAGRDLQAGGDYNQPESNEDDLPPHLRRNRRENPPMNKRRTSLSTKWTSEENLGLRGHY
In words: potency of MEX-5 RNA-binding blockers – biochemical, C. elegans, fluorescence polarization, dose response (AID 1960).

The target in assay [12] is T5, Corticotropin-releasing factor receptor 2/Corticotropin-releasing factor-binding protein (Homo sapiens, UniProt P24387+Q13324).
T5 sequence (Q13324 whole entry): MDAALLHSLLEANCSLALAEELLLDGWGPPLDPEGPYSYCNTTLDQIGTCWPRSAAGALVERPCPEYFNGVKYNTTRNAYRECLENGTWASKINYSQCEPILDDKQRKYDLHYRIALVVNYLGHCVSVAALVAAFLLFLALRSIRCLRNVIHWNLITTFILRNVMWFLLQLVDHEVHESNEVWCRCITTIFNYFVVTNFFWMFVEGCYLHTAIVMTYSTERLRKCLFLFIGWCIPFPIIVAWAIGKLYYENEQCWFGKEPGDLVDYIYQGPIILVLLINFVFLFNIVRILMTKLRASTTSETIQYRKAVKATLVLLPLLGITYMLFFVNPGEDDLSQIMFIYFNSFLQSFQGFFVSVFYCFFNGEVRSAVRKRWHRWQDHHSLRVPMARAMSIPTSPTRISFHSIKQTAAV
T5 sequence (P24387 whole entry): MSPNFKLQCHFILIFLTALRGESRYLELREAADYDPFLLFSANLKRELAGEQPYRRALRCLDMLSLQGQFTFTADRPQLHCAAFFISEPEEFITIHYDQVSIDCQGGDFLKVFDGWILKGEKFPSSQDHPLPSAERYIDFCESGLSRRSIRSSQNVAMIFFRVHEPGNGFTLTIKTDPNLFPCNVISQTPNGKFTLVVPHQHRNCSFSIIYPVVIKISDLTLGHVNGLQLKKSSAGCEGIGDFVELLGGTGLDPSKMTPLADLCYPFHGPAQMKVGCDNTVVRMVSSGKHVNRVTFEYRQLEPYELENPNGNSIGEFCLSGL
In words: Dose Response confirmation of uHTS hits for small molecule antagonists of the CRF-binding protein and CRF-R2 receptor complex. Type of assay: functional. Conditions: read-out: IC50_Mean.

The target of assay [13] is T5, Corticotropin-releasing factor receptor 2/Corticotropin-releasing factor-binding protein. In words: activators of CRF receptor 2 with binding protein – uHTS hits, confirmation (AID 602473). In kind it is functional. Conditions: read-out: EC50_Mean.
In assay [14] the target is T6, Probable nicotinate-nucleotide adenylyltransferase (Staphylococcus aureus (strain N315), UniProt P65502). Type of assay: functional, Staphylococcus aureus subsp. aureus N315.
In assay [15] the target is T6, Probable nicotinate-nucleotide adenylyltransferase. In kind it is functional, Staphylococcus aureus subsp. aureus N315. Conditions: read-out: IC50_Mean.
Assay [16] is described as follows: viability of uninfected HEp-2 cells – cell-based, HTS, cytotoxicity control for RSV inhibitor project, dose response (AID 2410). Type of assay: functional. Conditions: human respiratory syncytial virus.

T6 sequence (P65502 whole entry): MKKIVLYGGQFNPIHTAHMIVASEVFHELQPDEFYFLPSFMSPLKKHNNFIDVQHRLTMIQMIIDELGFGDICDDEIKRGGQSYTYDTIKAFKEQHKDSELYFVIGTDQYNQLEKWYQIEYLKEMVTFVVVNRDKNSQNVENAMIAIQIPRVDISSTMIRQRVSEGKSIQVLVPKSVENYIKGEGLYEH
DNA dC->dU-editing enzyme APOBEC-3G, sequence (Q9HC16 whole entry): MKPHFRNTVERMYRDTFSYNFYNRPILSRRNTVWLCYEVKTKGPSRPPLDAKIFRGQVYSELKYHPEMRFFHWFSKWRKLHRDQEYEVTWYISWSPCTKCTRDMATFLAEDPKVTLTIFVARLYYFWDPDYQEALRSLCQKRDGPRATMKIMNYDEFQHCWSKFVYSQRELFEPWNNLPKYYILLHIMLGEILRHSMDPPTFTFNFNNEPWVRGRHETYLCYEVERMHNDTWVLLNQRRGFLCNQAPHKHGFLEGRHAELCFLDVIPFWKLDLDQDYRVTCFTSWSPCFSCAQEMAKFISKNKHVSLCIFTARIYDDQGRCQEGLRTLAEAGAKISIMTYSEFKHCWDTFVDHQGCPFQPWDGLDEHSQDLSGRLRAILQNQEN
DNA dC->dU-editing enzyme APOBEC-3A, sequence (P31941 whole entry): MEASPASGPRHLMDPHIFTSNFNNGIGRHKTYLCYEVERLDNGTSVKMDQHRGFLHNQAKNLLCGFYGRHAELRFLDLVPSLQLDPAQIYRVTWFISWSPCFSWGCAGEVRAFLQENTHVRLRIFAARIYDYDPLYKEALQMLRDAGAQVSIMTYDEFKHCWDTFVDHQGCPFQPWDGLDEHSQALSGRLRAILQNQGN

Turning to `Cc1cccc(C(=O)N[C@H](C(=O)OCc2cc(=O)n3c(n2)sc2ccccc23)C(C)C)c1`, the EC50 in assay [1] is 26.2 µM (active); on Streptokinase A it was > 150 µM (not active); in the assay on Streptococcus it was 40.5 µM (active). Besides, the IC50 in assay [2] was 14.7 µM (active); in assay [3], 24.5 µM (active).
Consider `O=C1N[C@H](Cc2ccccc2)COC(=O)[C@@H](Cc2ccc(F)cc2)C/C=C\C[C@H]1CC(=O)N(CCO)Cc1ccccc1`, for which the IC50 in the assay with H9c2 is > 79 µM (inactive).
As for `NS(=O)(=O)c1cc(C(=O)OCC(=O)Nc2ccc3[nH]c(O)nc3c2)ccc1Cl`, the IC50 in assay [2] is 10.4 µM (active); in assay [3] it was 8.99 µM (active).
`CN(C(=O)CSCC(=O)Nc1ccc(Cl)cc1)C1CCCCC1`: on Protein skinhead-1, the IC50 was > 100 µM (inactive).
Take `CCCc1n(CC(O)COCc2ccccc2)c2ccccc2[n+]1C` (stereo not drawn): the IC50 was 3.16 µM (active) in [2] and 4.55 µM (active) in assay [3].
Consider `Cc1cc2ccccn2c1C(=O)c1ccc(Cl)c([N+](=O)[O-])c1`, for which the EC50 in the assay with BJ [4] is > 150 µM (not active); with BJ [5], > 150 µM (not active); in the assay with BJ [6], > 150 µM (inconclusive); in assay [7] it was > 150 µM (not active).
Usually AC50 stands for the concentration at which the activity in the assay is half-maximal. Regarding `C[C@H](CO)N1C[C@H](C)[C@H](CN(C)Cc2cccc(F)c2)OCc2ccccc2-c2ccccc2C1=O`, the AC50 in assay [8] and in assay [9] was < 260 nM (active) throughout.
In the case of `CCOCCCn1/c(=N/C(=O)c2ccc(OC)c(OC)c2)c(C#N)cc2c(=O)n3cccc(C)c3nc21`, the EC50 is 26.8 µM (active) in assay [10] and 35.4 µM (active) in assay [11].
On to `Cc1ccccc1COc1ccc(C(=O)C2=C(O)C(=O)N(CCCn3ccnc3)C2c2ccco2)cc1` (stereo not drawn), for which the IC50 in assay [12] is > 47.1 µM (inactive); in [14], 10.5 µM (active); in assay [15], 80 µM (inactive). The EC50 in assay [13] was > 53 µM (inactive).
Regarding `COCCNC1=N[C@@H](c2ccc(Br)cc2)C(C(=O)OC)=C(C)N1Cc1ccccc1`, the values for the IC50 in assay [2] and in [3] were 12 µM (active) and 15.1 µM (active), respectively.
Consider `COc1ccc(/C=C2\SC(=O)N(CC(=O)Nc3ccccc3O)C2=O)cc1OC`, for which, on Protein skinhead-1, the IC50 was > 100 µM (inactive).
Consider `CCOC(=O)c1ccc(NC(=O)c2[nH]cnc2C(=O)NCCCCCNC(=O)OC(C)(C)C)cc1`, for which the results for the EC50 (in assay [1]; in the assay on Streptococcus) were 3.49 µM (active) and 5.74 µM (active), respectively. Further, the IC50 in the assay on H9c2 is > 79 µM (inactive).
By CC50 is commonly meant the concentration giving 50% cytotoxicity. On to `Cc1c(OC(=O)CNC(=O)OC(C)(C)C)ccc2c3c(c(=O)oc12)CCC3`, for which the CC50 in [16] is 36.9 µM (active). For the same molecule, the IC50 at Protein skinhead-1 was > 100 µM (inactive).
With `CCc1n(CC(O)COCc2ccccc2)c2ccccc2[n+]1C` (stereo not drawn), the IC50 in [2] was 2.36 µM (active); in assay [3], 3.14 µM (active).
For the molecule `CSc1nc(Cl)c(Br)c(N2CC2)n1`, the IC50 in the assay on H9c2 is > 79 µM (inactive).
Same read-out and setting: under `O=C(CCc1nc(O)c2ccccc2n1)OCC(=O)N1CCc2ccccc21` stands > 79 µM (inactive).
With `Cc1cccc(C(=O)NC(C(=O)Nc2nc(-c3ccccn3)cs2)C(C)C)c1` (stereo not drawn), the EC50 in [1] is 6.29 µM (active); at Streptokinase A, > 150 µM (not active); in the assay on Streptococcus, 17.1 µM (active). Moreover, in the assay with H9c2, the IC50 was 8.6 µM (active).
Turning to `Cc1cc(C=C2C(=O)NC(=O)NC2=O)c(C)n1-c1cccnc1`, the EC50 in assay [10] was 64.3 µM (active); in [11], 36.7 µM (inconclusive).
On the same counts, the results for `CCOC(=O)c1ccc2c(c1)C1C=CCC1C(C(=O)OCC)N2` (stereo not drawn) are > 300 µM (not active) and > 300 µM (not active).
For the molecule `C#CCn1/c(=N/C(=O)c2cc(-c3cccs3)nc3ccccc23)sc2cc(S(N)(=O)=O)ccc21`, the cytotoxic concentration (CC50) in [16] was > 50 µM (active). The IC50 in [14] was 12.8 µM (active); in [15], 24.6 µM (active).
As to `Clc1ccc(OCc2nc(-c3ccncc3)no2)c(Br)c1`, the IC50 at Protein skinhead-1 was 31.6 µM (active).
`CC(C)c1ccc(N(CC(=O)Nc2ccc(S(=O)(=O)N3CCOCC3)cc2)S(C)(=O)=O)cc1`: on Protein skinhead-1, the IC50 was > 100 µM (inactive).
